According to patent publication US20130274284A1 (DR. REDDY'S LABORATORIES, INC., priority 2010, published 2013):

Assay: storage stability with respect to degradation impurities (OXTP impurity)
Type: physicochemical
Conditions: for stability with respect to impurities such as OXTP impurity: stored in presence of desiccant

## CC(=O)Oc1cc2c(s1)CCN(C(C(=O)C1CC1)c1ccccc1F)C2.Cl (racemic) [prasugrel hydrochloride, 5-[(1RS)-2-cyclopropyl-1-(2-fluorophenyl)-2-oxoethyl]-4,5,6,7-tetrahydrothieno[3,2-c]pyridin-2-yl acetate hydrochloride]
  stability with respect to impurities such as OXTP impurity: greater stability

## CC(=O)Oc1cc2c(s1)CCN(C(C(=O)C1CC1)c1ccccc1F)C2 (stereo not drawn) [prasugrel, 5-(2-cyclopropyl-1-(2-fluorophenyl)-2-oxoethyl)-4,5,6,7-tetrahydrothieno[3,2-c]pyridin-2-yl acetate]
During the storage
  degradation during storage leading to impurities such as OXTP impurity: degrades during the storage
  stability with respect to impurities such as OXTP impurity: greater stability
